In test [1] the target is T1, wild type androgen receptor (AR) (Homo sapiens, UniProt P10275).
T1 sequence (P10275 1-920): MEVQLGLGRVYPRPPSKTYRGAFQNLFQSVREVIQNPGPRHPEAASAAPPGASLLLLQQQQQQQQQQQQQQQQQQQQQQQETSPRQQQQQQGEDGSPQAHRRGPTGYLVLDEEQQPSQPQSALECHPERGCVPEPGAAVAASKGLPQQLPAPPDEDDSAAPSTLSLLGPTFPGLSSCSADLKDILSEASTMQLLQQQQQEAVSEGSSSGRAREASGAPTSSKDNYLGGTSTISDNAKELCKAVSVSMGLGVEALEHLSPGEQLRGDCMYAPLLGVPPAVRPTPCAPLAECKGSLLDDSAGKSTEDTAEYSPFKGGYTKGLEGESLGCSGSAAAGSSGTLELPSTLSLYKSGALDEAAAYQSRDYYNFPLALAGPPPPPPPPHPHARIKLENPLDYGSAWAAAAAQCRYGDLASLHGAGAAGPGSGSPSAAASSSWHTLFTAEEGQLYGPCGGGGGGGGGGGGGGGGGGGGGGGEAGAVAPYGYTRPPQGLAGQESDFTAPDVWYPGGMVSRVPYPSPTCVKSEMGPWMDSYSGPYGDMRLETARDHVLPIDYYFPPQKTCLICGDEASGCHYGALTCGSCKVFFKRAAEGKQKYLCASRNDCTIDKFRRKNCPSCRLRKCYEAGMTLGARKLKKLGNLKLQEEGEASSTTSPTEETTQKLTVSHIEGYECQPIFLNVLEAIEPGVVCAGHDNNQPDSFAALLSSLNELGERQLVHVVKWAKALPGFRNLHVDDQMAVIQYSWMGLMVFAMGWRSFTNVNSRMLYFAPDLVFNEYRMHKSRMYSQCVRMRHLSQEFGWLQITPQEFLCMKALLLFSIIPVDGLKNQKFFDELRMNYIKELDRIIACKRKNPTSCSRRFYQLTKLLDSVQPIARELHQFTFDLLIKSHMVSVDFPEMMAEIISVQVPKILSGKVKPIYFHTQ
Description: AR-binding inhibition test, wild type (radio-labeled Mibolerone displacement). To be noted: compound 1 μM; 3 nM radio-labeled Mibolerone; 4° C., 3 hours; dextran/charcoal method; read-out: Inhibitory rate (%) at 1 μM, wild type. Here is the method: (§1) To a solution of wild type or LNCaP type mutant androgen receptor (AR) was added 3 nM radio-labeled Mibolerone and final concentration 1 μM of the compound. The mixture was incubated at 4° C. for 3 hours, and B (Bound) and F (Free) Mibolerones were separated by the dextran/charcoal method. The label count of B was measured and the inhibition rate of the compound was calculated.

In test [2] the target is T2, LNCaP type mutant androgen receptor (AR) (Homo sapiens, UniProt P10275, T878A).
T2 sequence (P10275 1-920 T878A): T1 sequence (P10275 1-920) with T878A
Description: AR-binding inhibition test, LNCaP type (radio-labeled Mibolerone displacement). Conditions: compound 1 μM; 3 nM radio-labeled Mibolerone; 4° C., 3 hours; dextran/charcoal method; read-out: Inhibitory rate (%) at 1 μM, LNCaP type. As for the experimental part:
as §1

The test system of test [3] is Human prostate cancer cells LNCaP-FGC. Kind of test: Prostate specific antigen (PSA) production inhibition test in prostate cancer cells. The format is cell-based. To be noted: Homo sapiens, 72 h; compound 1 μM; testosterone 0.1 ng/m; PSA in culture supernatant after 3 days by ELISA; testosterone non-addition group 100%, addition group 0%; read-out: Inhibitory rate (%) at 1 μM (PSA production suppression rate). Here is the method:
Human prostate cancer cells LNCaP-FGC were plated in a 24 well plate at 40000 cells/1000 μL/well, and testosterone (final concentration 0.1 ng/m) and the compound (1 μM) were added the next day. The concentration of PSA in the culture supernatant after 3 days from the addition was measured by ELISA, and the PSA production suppression rate was calculated with the testosterone non-addition group as 100% and the testosterone addition group as 0%.

Test [4] has as its target T3, mutant AR (W741C) (Homo sapiens, UniProt P10275, W742C).
T3 construct: expressed in transfected cells; host or cells: Cos-7
T3 sequence (P10275 1-920 W742C): T1 sequence (P10275 1-920) with W742C
Description: AR transcription inhibition test (luciferase reporter in Cos-7 cells). The format is cell-based. Conditions: compound 1 μM, 0.1 μM DHT, luciferase activity after 24 hr, relative to control (0.1 μM DHT), read-out: Inhibitory rate (%) of mutant AR at 1 μM. As for the experimental part: Cos-7 cells (5,000,000 cells) were inoculated to a flask, and incubated in a culture medium (DMEM+10% Dextran Charcoal (DCC)−Fetal Bovine Serum (FBS) and 2 mM glutamine) for 24 hours. Then, a vector DNA harboring mutant AR (W741C) and a vector DNA containing a luciferase gene bound at the downstream of an androgen responsive promoter were cotransfected by a liposome method. After 4 hr, the medium was changed and, after culture for 3 hr, DHT (dihydrotestosterone) at the final concentration of 0.1 μM and the compound at the final concentration of 1 μM were added. After further culture for 24 hr, the luciferase activity was measured, and the AR transcription inhibitory activity of the compound was examined.
(In general: A reporter such as luciferase makes a cellular process visible.)

Results on three compounds are retold here after patent publication US20090270359A1, “SUBSTITUTED PYRAZOLE DERIVATIVES” (TAKEDA PHARMACEUTICAL COMPANY LIMITED, priority 2007, published 2009).

Where a chain is given by its changes, count along the chain named.

As to `Cc1nn(Cc2ccc(C(N)=O)nc2)c(C)c1-c1ccc(C#N)c(C(F)(F)F)c1` [Example 311, 5-({4-[4-cyano-3-(trifluoromethyl)phenyl]-3,5-dimethyl-1H-pyrazol-1-yl}methyl)pyridine-2-carboxamide], the inhibition at 1 µM stood at 29% in test [1], 29% in test [2], 85.8% in test [3] and 17% in test [4].
For `Cc1nn(Cc2ccc(S(N)(=O)=O)cc2)c(C)c1-c1ccc(C#N)c(Cl)c1` [Example 322, 4-{[4-(3-chloro-4-cyanophenyl)-3,5-dimethyl-1H-pyrazol-1-yl]methyl}benzenesulfonamide], the inhibition at 1 µM in test [1] amounted to 84%; in test [2], 83%; in test [3] it was 108%; in test [4], 24%.
In the case of `Cc1nn(Cc2ccc(C(N)=O)cc2)c(C)c1-c1ccc(C#N)c(Cl)c1F` [Example 337, 4-{[4-(3-chloro-4-cyano-2-fluorophenyl)-3,5-dimethyl-1H-pyrazol-1-yl]methyl}benzamide], the inhibition at 1 µM in test [1] was 71%; in test [2], 72%; in test [3], 104%; in test [4], 36%.
